According to ChEMBL document CHEMBL1144525, “Prediction of binding for a kind of non-peptic HCV NS3 serine protease inhibitors from plants by molecular docking and MM-PBSA method” (Bioorg Med Chem, 2007):
pIC50: −log10 of the molar value.

Assay: Inhibition of HCV NS3 serine protease
Parameters: species or system Hepacivirus hominis

Row | Structure (SMILES) | pIC50
1 | O=C(OC[C@H]1O[C@@H](O)[C@H](O)[C@@H](OC(=O)c2cc(O)c(O)c(O)c2)[C@@H]1O)c1cc(O)c(O)c(O)c1 | 3.02
2 | O=C(Oc1cc(C(=O)O[C@@H]2O[C@H](CO)[C@@H](OC(=O)c3cc(O)c(O)c(O)c3)[C@H](OC(=O)c3cc(O)c(O)c(O)c3)[C@H]2OC(=O)c2cc(O)c(O)c(O)c2)cc(O)c1O)c1cc(O)c(O)c(O)c1 | 6.17

More lines, in order of rising pIC50, values ahead:

Row | pIC50 | Structure (SMILES)
3 | 5.00 | O=C(OC[C@H]1O[C@@H](OC(=O)c2cc(O)c(O)c(O)c2)[C@H](O)[C@@H](OC(=O)c2cc(O)c(O)c(O)c2)[C@@H]1O)c1cc(O)c(O)c(O)c1
4 | 6.00 | O=C(O[C@@H]1O[C@H](CO)[C@@H](OC(=O)c2cc(O)c(O)c(O)c2)[C@H](OC(=O)c2cc(O)c(O)c(O)c2)[C@H]1O)c1cc(O)c(O)c(O)c1
5 | 6.18 | O=C(Oc1c(O)cc(C(=O)O[C@H]2[C@H](OC(=O)c3cc(O)c(O)c(O)c3)O[C@H](CO)[C@@H](OC(=O)c3cc(O)c(O)c(O)c3)[C@@H]2OC(=O)c2cc(O)c(O)c(O)c2)cc1O)c1cc(O)c(O)c(O)c1
